Reference: patent US20060079512A1, “Dibenzodiazepinone analogues, processes for their production and their use as pharmaceuticals” (Ecopia BioSciences, Inc., priority 2003, published 2006)
Where two headings read alike, the source gives them in different places. One block for each molecule: values may come before it.

Assays:
36 cancer cell lines = assay: Anticancer activity profiling against 36 cell lines (IC50); type: cell-based
Method: (§1) Compounds were dissolved at 10 mM in DMSO. Dilution in vehicle to concentrations of 30, 10, 3, 1 and 0.3 μM were prepared immediately before assays. Depending on the cell line's growth characteristics, 4000-10000 cells were plated in two 96-wells pates (day 0) and incubated for 16 hours. The following day, propidium iodide was added to one of the two plates and fluorescence measured (Tz). Test compounds were added to the second plate, as well as vehicle control, and cells further incubated for 96 hours. Each compound was tested at each concentration and in triplicates. The equivalent cell number was determined after adding propidium iodide by measuring the signal by fluorescence (C for control).

[1] = test system: HT-29, SF-268, PC-3, MDA-MB-231; assay: Average GI50 over the four cell lines, method (a); type: cell-based; conditions: method (a); values > 30 not considered; read-out: Average (GI50 μM)
Method: as §1

SMILES: CC(C)=CCC/C(C)=C/CC/C(C)=C/CN1C(=O)c2cccc(O)c2N(C)c2c(O)cc(O)cc21 [Compound 2, 10-farnesyl-4,6,8-trihydroxy-5-methyl-5,10-dihydro-dibenzo[b,e][1,4]diazepin-11-one]
levels of IC50 values (36 cancer cell lines; 36 tumor types): low micromolar to nanomolar
IC50 (36 cancer cell lines; Bladder, cell line 1218L (Xenograft), urothelial adeno ca, read-out: IC50): 166 nM
IC50 (36 cancer cell lines; Bladder, cell line T24 (ATCC), transitional cell ca, read-out: IC50): 127 nM
IC50 (36 cancer cell lines; CNS, cell line SF268 (NCI), read-out: IC50): 10 nM
IC50 (36 cancer cell lines; Gastric, cell line 251L (Xenograft), adeno ca, pd, read-out: IC50): 105 nM
IC50 (36 cancer cell lines; Head & Neck, cell line 536L (Xenograft), hypopharynx ca, read-out: IC50): 181 nM
IC50 (36 cancer cell lines; Homo sapiens, 22Rv1, Prostate, cell line 22RV1 (ATCC), adeno ca, md, read-out: IC50): 142 nM
IC50 (36 cancer cell lines; Homo sapiens, CNS cell, CNS, cell line 498NL (Xenograft), glioblastoma, read-out: IC50): 176 nM
IC50 (36 cancer cell lines; Homo sapiens, DU-145, Prostate, cell line DU145 (NCI), adeno ca, md, read-out: IC50): 158 nM
IC50 (36 cancer cell lines; Homo sapiens, HCT-116, Colon, cell line HCT116 (NCI), adeno ca, pd, read-out: IC50): 156 nM
IC50 (36 cancer cell lines; Homo sapiens, HT-29, Colon, cell line HT29 (NCI), adeno ca, pd, read-out: IC50): 223 nM
IC50 (36 cancer cell lines; Homo sapiens, LNCaP, Prostate, cell line LNCAP (DSMZ), adeno ca, md, read-out: IC50): 485 nM
IC50 (36 cancer cell lines; Homo sapiens, MCF7, Mammary, cell line MCF7 (NCI), mamma ca, read-out: IC50): 276 nM
IC50 (36 cancer cell lines; Homo sapiens, NCI-H460, Lung, cell line H460 (NCI), large cell ca, read-out: IC50): 366 nM
IC50 (36 cancer cell lines; Homo sapiens, OVCAR-3, Ovarian, cell line OVCAR3 (NCI), adeno ca, md, read-out: IC50): 139 nM
IC50 (36 cancer cell lines; Homo sapiens, PANC-1, Pancreas, cell line PANC1 (ATCC), read-out: IC50): 125 nM
IC50 (36 cancer cell lines; Homo sapiens, PC-3M, Prostate, cell line PC3M (NCI), adeno ca, pd, read-out: IC50): 114 nM
IC50 (36 cancer cell lines; Lung, cell line 289L (Xenograft), adeno ca, read-out: IC50): 1550 nM
IC50 (36 cancer cell lines; Lung, cell line 526L (Xenograft), adeno ca, read-out: IC50): 104 nM
IC50 (36 cancer cell lines; Lung, cell line 529L (Xenograft), large cell ca, read-out: IC50): 127 nM
IC50 (36 cancer cell lines; Lung, cell line 629L (Xenograft), adeno ca, read-out: IC50): 164 nM
IC50 (36 cancer cell lines; Lung, cell line 1121L (Xenograft), large cell ca, read-out: IC50): 125 nM
IC50 (36 cancer cell lines; Mammary, cell line 401NL (Xenograft), pap adeno ca, wd, read-out: IC50): 194 nM
IC50 (36 cancer cell lines; Melanoma, cell line 276L (Xenograft), mm, amelanotic, read-out: IC50): 1950 nM
IC50 (36 cancer cell lines; Melanoma, cell line 394NL (Xenograft), mm, amelanotic, pd, read-out: IC50): 20 nM
IC50 (36 cancer cell lines; Melanoma, cell line 462NL (Xenograft), mm, amelanotic, read-out: IC50): 978 nM
IC50 (36 cancer cell lines; Melanoma, cell line 514L (Xenograft), mm, melanotic, read-out: IC50): 110 nM
IC50 (36 cancer cell lines; Melanoma, cell line 520L (Xenograft), mm, melanotic, read-out: IC50): 85 nM
IC50 (36 cancer cell lines; Ovarian, cell line 899L (Xenograft), pap serous ca, md, read-out: IC50): 238 nM
IC50 (36 cancer cell lines; Ovarian, cell line 1619L (Xenograft), adeno ca, md, read-out: IC50): 579 nM
IC50 (36 cancer cell lines; Pancreas, cell line 1657L (Xenograft), adeno ca, md, read-out: IC50): 1780 nM
IC50 (36 cancer cell lines; Pleuramesot., cell line 1752L (Xenograft), pleuromesothelioma, read-out: IC50): 1500 nM
IC50 (36 cancer cell lines; Renal, cell line 393NL (Xenograft), hypernephroma, wd, read-out: IC50): 527 nM
IC50 (36 cancer cell lines; Renal, cell line 486L (Xenograft), hypernephroma, pd, read-out: IC50): 1140 nM
IC50 (36 cancer cell lines; Renal, cell line 944L (Xenograft), hypernephroma, read-out: IC50): 230 nM
IC50 (36 cancer cell lines; Renal, cell line 1781L (Xenograft), renal ca, read-out: IC50): 172 nM
IC50 (36 cancer cell lines; Uterus, cell line 1138L (Xenograft), carcinosarcoma, wd, read-out: IC50): 139 nM
IC50 (36 cancer cell lines; mean of all 36 cell lines, read-out: IC50, Mean of all cell lines): 407 nM

GI50 [1]: 4.23 µM
SMILES: CC(C)=CCC/C(C)=C/CC/C(C)=C/CN1C(=O)c2cccc(O)c2Nc2c(O)cc(O)cc21 [Compound 1, 10-farnesyl-4,6,8-trihydroxy-5,10-dihydrodibenzo[b,e][1,4]diazepin-11-one]
